{"source": "patent US20240190825A1", "about": "“PROCESS FOR PREPARATION OF CABOZANTINIB” (BIOCON LIMITED, priority 2021, published 2024)", "origin": "cited, not measured here"}
{"smiles": "COc1cc2nccc(Oc3ccc(NC(=O)C4(C(=O)Nc5ccc(F)cc5)CC4)cc3)c2cc1OC.O=C(O)C[C@H](O)C(=O)O", "note": "[crystalline form M4]", "values": [{"measurement": "solubility of crystal form", "setting": "as disclosed in WO2020057622 A1 on WO2015177758 A1 forms", "value": "low"}]}
{"smiles": "COc1cc2nccc(Oc3ccc(NC(=O)C4(C(=O)Nc5ccc(F)cc5)CC4)cc3)c2cc1OC.O=C(O)C[C@H](O)C(=O)O", "note": "[Cabozantinib (S)-malate salt, N-(4-(6,7-dimethoxyquinolin-4-yloxy)phenyl)-N′-(4fluorophenyl)cyclopropane-1,1-dicarboxamide, (2S)-hydroxybutanedioate]", "values": [{"measurement": "solubility in aqueous media", "setting": "aqueous media", "value": "practically insoluble"}]}
{"smiles": "COc1cc2nccc(Oc3ccc(NC(=O)C4(C(=O)Nc5ccc(F)cc5)CC4)cc3)c2cc1OC", "note": "[Cabozantinib, N-(4-(6,7-dimethoxyquinolin-4-yloxy)phenyl)-N′-(4Fluorophenyl) cyclopropane-1,1-dicarboxamide]", "values": [{"measurement": "water solubility", "setting": "water", "value": "poorly water-soluble"}]}
